According to US10899754B2, “Modulators of indoleamine 2,3-dioxygenase” (GLAXOSMITHKLINE INTELLECTUAL PROPERTY DEVELOPMENT LIMITED, priority 2016, dated 2021):

What was measured:
Assay type in all cases: cell-based
[1] = system: human peripheral blood mononuclear cells (PBMC); test: PBMC cytotoxicity assay (CellTiter-Glo); conditions: 2 days, pCC50
Outline: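 Human PBMC (50,000 cells/well) stimulated with IFN-γ 100 ng/ml and LPS 50 ng/ml were exposed to 11-point 3-fold compound dilutions for 2 days at 37 °C, 5% CO2. Viability read by CellTiter-Glo ATP luminescence and normalized to no-cell and stimulated-DMSO controls. XC50 derived by four-parameter fit.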

[2] = target: T1, indoleamine 2, 3-dioxygenase (IDO1) (Homo sapiens, UniProt P14902); test: IDO1 PBMC RapidFire MS assay (kynurenine detection by mass spectrometry); parameters: to induce the expression of indoleamine 2, 3-dioxygenase (IDO1); host or cells: human PBMC stimulated with IFN-gamma and LPS; conditions: human PBMC stimulated with IFN-γ and LPS, 2 days, pIC50, read-out: PBMC PXC50 (converted)
Outline: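 PBMCs (50,000 cells/well) stimulated with IFN-γ 100 ng/ml plus LPS 50 ng/ml, treated with 11-point 3-fold compound series for 2 days at 37° C. Supernatant kynurenine measured by RapidFire MS, normalised to internal standard; parallel cytotoxicity by CellTiter-Glo luminescence; curves fitted for XC50.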

[3] = target: T1, indoleamine 2, 3-dioxygenase (IDO1); test: IDO1 HeLa RapidFire MS assay (kynurenine detection by mass spectrometry); parameters: to induce the expression of indoleamine 2, 3-dioxygenase (IDO1); conditions: HeLa cells, pIC50, read-out: IDO1_HELA_PXC50 (converted)
Outline: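 Compound potency reported as pIC50 from kynurenine/internal-standard ratio (RapidFire MS) in supernatant of IFN-γ-induced (10 nM) HeLa cells, 5,000 per well, after 2 days' treatment with 11-point dilutions. Cytotoxicity in the same format by luminescent ATP detection, reported as pCC50.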

[4] = system: human epithelial HeLa cells; test: HeLa cytotoxicity assay (CellTiter-Glo); conditions: pCC50
Outline: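 HeLa cells (5,000/well) stimulated with 10 nM IFN-γ, exposed to 11-point 3-fold compound dilutions for 2 days at 37 °C; viability by CellTiter-Glo ATP luminescence. Normalized to cell-free (100% cytotoxicity) and stimulated-cell DMSO (0%) controls; four-parameter fit gives pCC50.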

T1 sequence (P14902 whole entry): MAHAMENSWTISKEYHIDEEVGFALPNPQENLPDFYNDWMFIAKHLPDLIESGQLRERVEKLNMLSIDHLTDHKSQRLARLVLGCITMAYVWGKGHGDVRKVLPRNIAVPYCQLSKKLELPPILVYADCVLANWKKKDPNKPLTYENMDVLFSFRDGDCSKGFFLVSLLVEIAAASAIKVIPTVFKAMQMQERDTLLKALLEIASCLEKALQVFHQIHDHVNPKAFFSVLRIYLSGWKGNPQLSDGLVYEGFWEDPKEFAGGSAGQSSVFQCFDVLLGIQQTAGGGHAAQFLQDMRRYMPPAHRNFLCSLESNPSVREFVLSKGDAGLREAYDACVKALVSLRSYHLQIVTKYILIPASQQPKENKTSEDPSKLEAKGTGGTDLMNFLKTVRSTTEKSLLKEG

| Compound | IC50 [2] | IC50 [3] | PBMC TOX PXC50 [1] | HELA_IDO1_TOX_PXC50 [4] |
| --- | --- | --- | --- | --- |
| CC(C)CN(c1ccc([C@H](C)CC(=O)O)cc1Nc1ccc(Cl)nc1)[C@H]1CC[C@@H](O)CC1 [Example 58, (R)-3-(3-((6-chloropyridin-3-yl)amino)-4-(((1s,4S)-4-hydroxycyclohexyl) (isobutyl)amino)phenyl)butanoic Acid] | 7.94 nM | 10 nM | <5 | <5 |
| CC(C)CN(c1ccc([C@H](C)CC(=O)O)cc1Nc1nc(C(F)(F)F)ns1)C1CCN(C(=O)OC(C)C)CC1 [Example 65, (R)-3-(4-(isobutyl(1-(isopropoxycarboxyl)piperidin-4-yl)amino)-3-((3-(trifluoromethyl)-1,2,4-thiadiazol-5-yl)amino)phenyl)butanoic Acid] | 1.26 nM | 3.98 nM | <5 | <5 |
| COCC(=O)N1CCC(N(CC(C)C)c2ccc([C@H](C)CC(=O)O)cc2Nc2nc(C(F)(F)F)ns2)CC1 [Example 72, (R)-3-(4-(isobutyl(1-(2-methoxyacetyl)piperidin-4-yl)amino)-3-((3-(trifluoromethyl)-1,2,4-thiadiazol-5-yl)amino)phenyl)butanoic Acid] | 10 nM | 39.8 nM | <5 | <5 |
| CC(C)CN(c1ccc([C@H](C)CC(=O)O)cc1Nc1ccc(C#N)cn1)C1CCCCC1 [Example 73, (R)-3-(3-((5-cyanopyridin-2-yl)amino)-4-(cyclohexyl(isobutyl)amino)phenyl)butanoic Acid] | 0.794 nM | 3.98 nM | <5 | <5 |
| CC(C)CN(c1ccc([C@H](C)CC(=O)O)cc1Nc1ccc(Cl)nc1)C1CCCCC1 [Example 74, (R)-3-(3-((6-chloropyridin-3-yl)amino)-4-(cyclohexyl(isobutyl)amino)phenyl)butanoic Acid] | 0.794 nM | 3.98 nM | 6.5 | <5 |
| CC(C)CN(c1ccc([C@H](C)CC(=O)O)cc1Nc1nnc(C(N)=O)s1)C1CCCCC1 [Example 81, (R)-3-(3-((5-Carbamoyl-1,3,4-thiadiazol-2-yl)amino)-4-(cyclohexyl(isobutyl)amino)phenyl)butanoic] | 3.98 nM | 7.94 nM | <5 | <5 |
| COCc1nnc(Nc2cc([C@H](C)CC(=O)O)ccc2N(CC(C)C)C2CCCCC2)[nH]1 [Example 82, (R)-3-(4-(cyclohexyl(isobutyl)amino)-3-((5-(methoxymethyl)-4H-1,2,4-triazol-3-yl)amino)phenyl)butanoic Acid] | 7.94 nM | 15.8 nM | <5 | <5 |
| CC(C)CN(c1ccc(-c2cccnc2C(=O)O)cc1Nc1nc(C(F)(F)F)ns1)C1CCCCC1 [Example 88, 3-(4-(cyclohexyl(isobutyl)amino)-3-((3-(trifluoromethyl)-1,2,4-thiadiazol-5-yl)amino)phenyl)picolinic Acid] | 3.98 nM | 5.01 nM | <5 | <5 |
| CC(C)CN(c1ccc([C@H](C)Cc2nnn[nH]2)cc1Nc1nc(Cl)ns1)C1CCCCC1 [Example 102, (R)-4-(1-(1H-tetrazol-5-yl)propan-2-yl)-N^2-(3-chloro-1,2,4-thiadiazol-5-yl)-N^1-cyclohexyl-N^1-isobutylbenzene-1,2-diamine] | 5.01 nM | 7.94 nM | <5 | <5 |
| CO[C@H]1CC[C@H](N(CC(C)C)c2ccc(-c3ccccc3C(=O)O)cc2Nc2nc(C(F)(F)F)ns2)CC1 [Example 111, 4′-(isobutyl((1r,4r)-4-methoxycyclohexyl)amino)-3′-((3-(trifluoromethyl)-1,2,4-thiadiazol-5-yl)amino)-[1,1′-biphenyl]-2-carboxylic Acid] | 3.98 nM | 10 nM | <5 | <5 |

Now from value to compound, other results behind:

| IC50 [2] | IC50 [3] | Compound | PBMC TOX PXC50 [1] | HELA_IDO1_TOX_PXC50 [4] |
| --- | --- | --- | --- | --- |
| 6.31 nM | 10 nM | CC(C)CN(c1ccc([C@H](C)CC(=O)O)cc1Nc1nc(C(F)(F)F)ns1)[C@H]1CC[C@@H](O)CC1 [Example 59, (R)-3-(4-(((1s,4S)-4-hydroxycyclohexyl) (isobutyl)amino)-3-((3-(trifluoromethyl)-1,2,4-thiadiazol-5-yl)amino)phenyl)butanoic Acid] | <5 | <5 |
| 2 nM | 6.31 nM | CO[C@H]1CC[C@@H](N(CC(C)C)c2ccc([C@H](C)CC(=O)O)cc2Nc2n[nH]c(Cl)n2)CC1 [Example 61, (R)-3-(3-((5-chloro-1H-1,2,4-triazol-3-yl)amino)-4-(isobutyl((cis)-4-methoxycyclohexyl)amino)phenyl)butanoic Acid] | <5 | <5 |
| 5.01 nM | 20 nM | CC(C)CN(c1ccc([C@H](C)CC(=O)O)cc1Nc1nc(C(F)(F)F)ns1)C1CCN(S(C)(=O)=O)CC1 [Example 71] | <5 | <5 |
| 1.58 nM | 3.16 nM | CC(C)CN(c1ccc([C@H](C)CC(=O)O)cc1Nc1ccc(Cl)cn1)C1CCCCC1 [Example 75, (R)-3-(3-((5-chloropyridin-2-yl)amino)-4-(cyclohexyl(isobutyl)amino)phenyl)butanoic Acid] | <5 | <5 |
| 2.51 nM | 3.98 nM | CC(C)CN(c1ccc([C@H](C)CC(=O)O)cc1Nc1ccc(C(F)(F)F)cn1)C1CCCCC1 [Example 76, (R)-3-(4-(cyclohexyl(isobutyl)amino)-3-((5-(trifluoromethyl)pyridin-2-yl)amino)phenyl)butanoic Acid] | <5 | <5 |
| 3.98 nM | 7.94 nM | CC(C)CN(CC(C)C)c1ccc([C@H](C)CC(=O)O)cc1Nc1nnc(C(F)(F)F)s1 [Example 87, (R)-3-(4-(diisobutylamino)-3-((5-(trifluoromethyl)-1,3,4-thiadiazol-2-yl)amino)phenyl)butanoic Acid] | <5 | <5 |
| 10 nM | 25.1 nM | CC(C)CN(CC(C)C)c1ccc(-c2ccccc2C(=O)O)cc1Nc1nc(C(F)(F)F)ns1 [Example 90, 4′-(diisobutylamino)-3′-((3-(trifluoromethyl)-1,2,4-thiadiazol-5-yl)amino)-[1,1′-biphenyl]-2-carboxylic Acid] | <5 | <5 |
| 10 nM | 20 nM | CC(C)CN(c1ccc(-c2ccccc2C(=O)O)cc1Nc1nc(C(N)=O)ns1)C1CCCCC1 [Example 91, 3′-((3-carbamoyl-1,2,4-thiadiazol-5-yl)amino)-4′-(cyclohexyl(isobutyl)amino)-[1,1′-biphenyl]-2-carboxylic acid] | <5 | <5 |
| 1 nM | 5.01 nM | CC(C)CN(c1ccc(-c2ccccc2C(=O)O)cc1Nc1nc(C(F)(F)F)ns1)C1CCN(c2nc(C(F)(F)F)ns2)CC1 [Example 92, 4′-(isobutyl(1-(3-(trifluoromethyl)-1,2,4-thiadiazol-5-yl)piperidin-4-yl)amino)-3′-((3-(trifluoromethyl)-1,2,4-thiadiazol-5-yl)amino)-[1,1′-biphenyl]-2-carboxylic Acid] | 6.1 | <5 |
| 1.58 nM | 2.51 nM | CC(C)CN(c1ccc([C@H](C)Cc2nnn[nH]2)cc1Nc1nc(C(F)(F)F)ns1)C1CCCCC1 [Example 101, (R)-4-(1-(1H-tetrazol-5-yl)propan-2-yl)-N^1-cyclohexyl-N^1-isobutyl-N^2-(3-(trifluoromethyl)-1,2,4-thiadiazol-5-yl)benzene-1,2-diamine] | <5 | <5 |
| 1.58 nM | 3.16 nM | CC(C)CN(c1ccc(-c2ccccc2C(=O)O)cc1Nc1nc(C(F)(F)F)ns1)C1CCOCC1 [Example 103, 4′-(isobutyl(tetrahydro-2H-pyran-4-yl)amino)-3′-((3-(trifluoromethyl)-1,2,4-thiadiazol-5-yl)amino)-[1,1′-biphenyl]-2-carboxylic Acid] | <5 | <5 |
| 10 nM | 31.6 nM | CC(C)CN(CC(C)C)c1ccc([C@H](C)CC(=O)NS(C)(=O)=O)cc1Nc1nc(C(F)(F)F)ns1 [Example 109, (R)-3-(4-(diisobutylamino)-3-((3-(trifluoromethyl)-1,2,4-thiadiazol-5-yl)amino)phenyl)-N-(methylsulfonyl)butanamide] | <5 | <5 |
